# Reference: patent US7285221B2, “Composition for preventing of slime and method for preventing slime” (Kurita Water Industries, Ltd., priority 2002, dated 2007)
# What was measured:
# sludge = test: Accumulation of sludge at the bottom of the water tank of the circulating test water apparatus; conditions: 120 hours after start of test; agent concentrations as in each example
# Experimental: (§1) From a water tank 1 holding 15 liters of water, test water was passed at a rate of 10 liters/minute through a column 3 and returned to the water tank 1 using a circulating pump 2. In the column 3, a test board made of a synthetic rubber and having a surface area of 40 cm^2 was disposed to a supporting pole to measure the amount of attachment of slime.
# (§2) In a water tank 4, test liquid for supplement prepared in advance was stored and transferred into the water tank 1 at a rate of 5 ml/minute using a pump for an agent 5. The test liquid for supplement was prepared by adding calcium chloride and sodium hydrogencarbonate to city water, which was dechlorinated by passing through a column of active carbon, in amounts such that the calcium hardness was 150 mg CaCO3/liter and the acid consumption (pH 4.8) was 150 mg CaCO3/liter. As the nutrient for microorganisms, 100 mg/liter of citric acid was added. To the obtained solution, a test agent was added and pH was adjusted at 8.5 by adding sodium hydroxide.
# (§3) When the test was started, dirt was added into the water in the water tank 1 in an amount such that the turbidity of the water was 50. As the dirt, a concentrated liquid of reverse washing discharged from filters for industrial water in Chiba area was used. The dirt was added into the water tank 1 in an amount corresponding to a turbidity of 25 at each time when 48 hours and 96 hours had passed after the start of the test.
# A valve 6 at a lower portion of the water tank 1 was opened and the water in the water tank 1 was removed 120 hours after the start of the test. The valve 6 was then closed again. Into the water tank 1, 200 ml of pure water was added and dirt accumulated at the lower portion of the water tank was suspended using a brush. The valve was opened and the formed suspension was taken out. After the dirt was separated using a centrifuge and dried to the constant weight at 105° C., the weight of the dirt was measured and the amount of accumulated sludge was obtained.
# (§4) As part A of the test agent, a mixed liquid composed of 40% by weight of an aqueous solution of sodium hypochlorite having a concentration of effective chlorine of 12% by weight, 8% by weight of a sulfamic acid, 10% by weight of sodium hydroxide and 42% by weight of water was used. This mixed liquid is a solution conventionally used as the agent for preventing formation of slime. As part B of the agent, an anionic polymer or a phosphonic acid was used.
# [1] = tested on: microorganisms in the circulating water; test: Number of microorganisms in the circulating water
# Experimental: as §1, §2, §3
# (§5) The number of microorganisms in the circulating water and the turbidity of the circulating water were measured 48 hours, 72 hours and 120 hours after the start of the test. The test board of synthetic rubber attached to the column 3 was taken out 120 hours after the start of the test. After slime attached to the test board was cleaved and dried to the constant weight at 105° C., the weight of the slime was measured and the amount of the attached slime was obtained.
# as §4
# slime = test: Attachment of slime on a synthetic rubber test board in circulating test water apparatus; conditions: 120 hours after start of test; agent concentrations as in each example
# Experimental: as §1, §2, §3, §5, §4
# [2] = Storage stability of effective chlorine in the composition at 40° C. shielded from light; assay type: physicochemical; conditions: for concentration of effective chlorine remained: pH 14; for Fraction of remaining effective chlorine: pH of composition 14, 40° C.
# Experimental: A composition composed of 40% by weight of an aqueous solution of sodium hypochlorite having a concentration of effective chlorine of 12% by weight, 8% by weight of sulfamic acid, 10% by weight of an anionic polymer or a phosphonic acid and the remaining amount of sodium hydroxide and water was prepared. pH of the composition was adjusted by changing the amount of sodium hydroxide. The prepared composition was stored in a vessel kept at the constant temperature of 40° C. and shielded from light. The concentration of the effective chlorine was measured after the composition was stored for a prescribed time.
# For the measurement of the concentration of the effective chlorine, a residual chlorine meter manufactured by HACH Company and a reagent specific for this measurement were used. BELCREN (the weight-average molecular weight: 2730) manufactured by GREAT LAKES CHEMICAL Company was used as the polymaleic acid. ISOBAN (the weight-average molecular weight: 10,800) manufactured by KURARAY Co., Ltd. was used as the maleic acid-isobutylene copolymer. AQUARICK GL (the weight-average molecular weight: 10,700) manufactured by NIPPON SHOKUBAI Co., Ltd. was used as the acrylic acid-hydroxyallyloxypropanesulfonic acid copolymer. DEQUEST 2010 manufactured by MONSANTO Company was used as 1-hydroxyethylidene-1,1-diphosphonic acid. BAYHIBIT AM manufactured by BAYER Company was used as 2-phosphonobutane-1,2,4-tricarboxylic acid. BELCORE 575 manufactured by GREAT LAKES Company was used as hydroxyphosphonoacetic acid.
concentration of effective chlorine remained ([2]; after 3 month),concentration of effective chlorine remained ([2]; after one month),Fraction of remaining effective chlorine ([2]; after 7 days) [%],Fraction of remaining effective chlorine ([2]; after 30 days) [%],Fraction of remaining effective chlorine ([2]; after 90 days) [%],Compound,Accumulation of sludge amount (sludge) [mg],Number of microorganisms in circulating water ([1]; after 48 hours) [mL⁻¹],Number of microorganisms in circulating water ([1]; after 72 hours) [mL⁻¹],Number of microorganisms in circulating water ([1]; after 120 hours) [mL⁻¹],"number of microorganisms in the circulating water, in words ([1]; comparison in words, no time point)",Attachment of slime amount (slime) [mg/dm^2]
–,–,–,–,–,"CC(O)(P(=O)(O)O)P(=O)(O)O [Comparative Example 8, 1-hydroxyethylidene-1,1-diphosphonic acid]",42.8,720000,550000,490000,not substantially different,17.3
–,–,–,–,–,"CC(O)(P(=O)(O)O)P(=O)(O)O [Comparative Example 9, 1-hydroxyethylidene-1,1-diphosphonic acid]",39.6,1.3e+06,490000,680000,–,16.1
–,–,–,–,–,"O=C(O)CCC(CC(=O)O)(C(=O)O)P(=O)(O)O (stereo not shown) [Comparative Example 10, 2-phosphonobutane-1,2,4-tricarboxylic acid]",55.5,670000,840000,420000,–,19.2
–,–,–,–,–,"O=C(O)CCC(CC(=O)O)(C(=O)O)P(=O)(O)O (stereo not shown) [Comparative Example 11, 2-phosphonobutane-1,2,4-tricarboxylic acid]",48.8,3.8e+06,890000,760000,–,16.5
–,–,–,–,–,"O=C(O)C(O)P(=O)(O)O (stereo not shown) [Comparative Example 13, hydroxy-phosphonoacetic acid]",51.1,660000,350000,490000,–,16.5
about 20%,about 60%,91,59,18,OCl [sodium hypochlorite],–,–,–,–,–,–
